# From patent US10172839B2, “Use of short term starvation regimen in combination with kinase inhibitors to enhance traditional chemo-drug efficacy and feasibility and reverse side effects of kinases in normal cells and tissues” (UNIVERSITY OF SOUTHERN CALIFORNIA, priority 2014, dated 2019)
# Columns and labels:
# [1] = Blood glucose levels in mice treated with STS, rapamycin, and rapamycin with STS; type: in vivo
# Experimental: Methods: Short term starvation (STS) or fasting mimicking diet (FMD) were administrated bi-weekly for periods of 48 h or 4 days, respectively. The end of the dietary intervention coincided with the administration of doxorubicin by intravenous injection. The animals were given a period of 10 to 12 days to recover bodyweight between one cycle of dietary intervention and the next. […] One-way ANOVA test was performed and differences with p-value<0.05 were considered significant (p-value<0.05, 0.01 and 0.001 are indicated as *, […], respectively).
# [2] = Stress resistance experiment: survival after high dose doxorubicin
structure (smiles),measurement,setting,value
CO[C@H]1C[C@@H]2CC[C@@H](C)[C@@](O)(O2)C(=O)C(=O)N2CCCC[C@H]2C(=O)O[C@H]([C@H](C)C[C@@H]2CC[C@@H](O)[C@H](OC)C2)CC(=O)[C@H](C)/C=C(\C)[C@@H](O)[C@@H](OC)C(=O)[C@H](C)C[C@H](C)/C=C/C=C/C=C/1C [rapamycin],blood glucose,[1]; Rapa+STS/FMD mice (FIG. 1A),decreased blood glucose
same,blood glucose,"[1]; rapamycin alone, intraperitoneally every day, ad lib feeding (FIG. 1A)",increase of blood glucose
same,mortality / survival at day 20,[2]; rapamycin 14 days + STS 48 h prior to doxorubicin 24 mg/kg iv (FIG. 2B),STS can reverse the sensitization of normal tissue to chemotherapy induced by rapamycin
same,mortality / survival at day 20,"[2]; rapamycin 14 days, then doxorubicin 24 mg/kg iv, ad lib feeding (FIG. 2B)",increased mortality
